Read-outs that look alike come from different tables or passages of the source.
Legend:
CYP2C19 = CYP2C19 (Homo sapiens, UniProt P33261); assay: Direct CYP inhibition assay using pooled HLM
Method: (§1) The enzyme reactions were initiated by adding NADPH (1 mM), and the mixtures were incubated at 37 °C for 5 min in a shaking water bath (100 rpm). The reaction was terminated by adding ice-cold acetonitrile (ACN) containing CBZ (100 nM) and 4-methyl-umbelliferone (300 nM) as internal standards (IS).
(§2) The chromatographic separation was performed on an Agilent 1200 series HPLC system (Agilent Technologies, Santa Clara, CA, USA) equipped with an Atlantis^TM dC18 column (2.1 × 50 mm, 3 µm; Waters Corporation, Milford, MA, USA) with a SecuityGuard^TM C18 guard column (2.0 × 4.0 mm; Phenomenex, Torrance, CA, USA). The mobile phases consisted of double-deionized water (DDW) containing 0.1% (v/v) of formic acid (A) and ACN containing 0.1% (v/v) formic acid (B). […] The sample injection volume was 10 µL, and the total run time was 9.0 min. The column and auto-sampler compartments were maintained at 30 °C and 10 °C, respectively, throughout the analysis. The detection was performed using an API4000 Q-TRAP system equipped with a Turbo V Ion Spray^TM source (Applied Biosystems, Foster City, CA, USA). The operating conditions were optimized as follows: ionization voltage: 5500 V for positive-ion mode and −4500 V for negative-ion mode; ion source temperature: 550 °C; nebulizing gas flow: 50 L/min; auxiliary gas flow: 40 L/min; and curtain gas flow: 30 L/min. The samples were analyzed via multiple reaction monitoring (MRM) mode. […] The data acquisition and processing were performed using Analyst^TM software (version 1.5.2; Applied Biosystems, Foster City, CA, USA).

CYP2B6 = target: T1, CYP2B6 (Homo sapiens, UniProt P20813); assay: Direct CYP inhibition assay using pooled HLM
T1 sequence (P20813 1-491): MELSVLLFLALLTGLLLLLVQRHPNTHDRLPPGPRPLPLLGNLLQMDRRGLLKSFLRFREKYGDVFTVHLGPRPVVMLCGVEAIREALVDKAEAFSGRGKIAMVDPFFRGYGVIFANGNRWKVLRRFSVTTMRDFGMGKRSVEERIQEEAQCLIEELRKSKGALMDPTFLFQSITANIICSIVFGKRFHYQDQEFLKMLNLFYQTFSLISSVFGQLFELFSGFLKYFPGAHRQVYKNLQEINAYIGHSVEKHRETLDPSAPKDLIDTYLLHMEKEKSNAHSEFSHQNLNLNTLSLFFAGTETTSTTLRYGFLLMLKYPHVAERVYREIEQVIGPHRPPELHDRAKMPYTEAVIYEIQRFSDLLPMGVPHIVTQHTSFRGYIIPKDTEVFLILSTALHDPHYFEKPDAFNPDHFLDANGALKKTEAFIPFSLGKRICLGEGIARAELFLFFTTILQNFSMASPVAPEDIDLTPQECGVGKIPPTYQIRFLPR
Method: as §1, §2

CYP1A2 = target: T2, CYP1A2 (Homo sapiens, UniProt P05177); assay: Direct CYP inhibition assay using pooled HLM
T2 sequence (P05177 1-516): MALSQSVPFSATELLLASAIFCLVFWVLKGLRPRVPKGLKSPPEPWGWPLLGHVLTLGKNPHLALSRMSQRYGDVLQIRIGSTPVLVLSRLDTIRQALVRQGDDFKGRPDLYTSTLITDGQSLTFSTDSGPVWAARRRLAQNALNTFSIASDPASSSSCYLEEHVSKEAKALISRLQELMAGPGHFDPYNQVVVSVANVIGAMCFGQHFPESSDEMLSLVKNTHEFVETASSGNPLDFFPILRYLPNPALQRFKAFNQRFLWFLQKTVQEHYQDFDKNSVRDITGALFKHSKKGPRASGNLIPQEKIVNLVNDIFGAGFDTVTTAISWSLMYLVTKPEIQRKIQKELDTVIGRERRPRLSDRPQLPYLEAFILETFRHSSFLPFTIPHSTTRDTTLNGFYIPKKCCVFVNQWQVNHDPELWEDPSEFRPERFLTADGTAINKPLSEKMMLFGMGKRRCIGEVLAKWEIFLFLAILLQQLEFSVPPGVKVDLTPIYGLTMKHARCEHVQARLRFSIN
Method: as §1, §2

[1] = Metabolic stability and metabolite formation of BBR in pooled HLM; conditions: BBR 1 µM in pooled HLM with NADPH-generating system, mean ± SD
Method: To evaluate NADPH-dependent metabolism, BBR (1 µM) was incubated with pooled HLM (1 mg/mL) in the presence of the NADPH-regenerating system (1 mM of NADP^+, 5 mM of G6P, and 1 U/mL of G6PDH) to be a final volume of 200 µL. The reactions were quenched by adding the same volume of ice-cold ACN containing CBZ (100 nM) at 0, 7.5, 15, 30, 60, and 120 min of incubation. The incubation mixtures were centrifuged at 1000× g for 20 min at 4 °C, and the supernatants were analyzed by the LC-MS/MS system described in Section 2.2.
Meanwhile, to identify the known metabolites of BBR, an aliquot (5 µL) of the supernatant was injected into an accurate-MS system consisting of an Agilent 6530 Q-TOF LC/MS equipped with dual AJS ESI ion source (Agilent Technologies) and Agilent 1200 series HPLC system (Agilent Technologies). Chromatographic separations were performed on an Agilent Eclipse Plus C18 column (150 × 2.1 mm, 3.5 µm; Agilent Technologies) by gradient elution with a binary mobile phase consisting of DDW with 0.1% (v/v) formic acid (A) and ACN with 0.1% (v/v) formic acid (B) at a flow rate of 0.2 mL/min, where the mobile phase B was set as follows: 2% at 0 min, 20% at 15 min, and 30% at 20–25 min, followed by re-equilibration for 3 min.
In vitro metabolic stability parameters, including half-life (t1/2) and microsomal intrinsic clearance (CLint,mic), were determined according to our previous report [32]. The degradation t1/2 values of the microsomal stability studies were calculated using the following Equation (2):(2) t1/2=0.693/k, where k represents the first-order degradation rate constant. The k values were estimated by fitting a one-phase exponential decay model to the parent drug remaining (%) vs. incubation time plots using GraphPad Prism 5.0 (GraphPad Software Inc., San Diego, CA, USA).
The CLint,mic was determined using the in vitro half-life approach.

CYP2E1 = CYP2E1 (Homo sapiens, UniProt P05181); assay: Direct CYP inhibition assay using pooled HLM
Method: as §1, §2

[2] = tested on: CYP enzymes (range over all CYP enzymes tested); assay: Direct CYP inhibition assay using pooled HLM, all CYP enzymes tested; type: in vitro ADME, human; conditions: human, pooled human liver microsomes, pH 7.4, read-out: IC50 values, range over all CYP enzymes tested (pan-CYP inhibitory activities)
Method: as §1
(§3) The chromatographic separation was performed on an Agilent 1200 series HPLC system (Agilent Technologies, Santa Clara, CA, USA) equipped with an Atlantis^TM dC18 column (2.1 × 50 mm, 3 µm; Waters Corporation, Milford, MA, USA) with a SecuityGuard^TM C18 guard column (2.0 × 4.0 mm; Phenomenex, Torrance, CA, USA). The mobile phases consisted of double-deionized water (DDW) containing 0.1% (v/v) of formic acid (A) and ACN containing 0.1% (v/v) formic acid (B). […] The sample injection volume was 10 µL, and the total run time was 9.0 min. The column and auto-sampler compartments were maintained at 30 °C and 10 °C, respectively, throughout the analysis. The detection was performed using an API4000 Q-TRAP system equipped with a Turbo V Ion Spray^TM source (Applied Biosystems, Foster City, CA, USA). […] The samples were analyzed via multiple reaction monitoring (MRM) mode. […]

CYP2D6 [3] = target: T3, CYP2D6 (Homo sapiens, UniProt P10635); assay: Direct CYP inhibition assay using pooled HLM
Method: as §1, §2

CYP2C8 = target: T4, CYP2C8 (Homo sapiens, UniProt P10632); assay: Direct CYP inhibition assay using pooled HLM
T4 sequence (P10632 1-490): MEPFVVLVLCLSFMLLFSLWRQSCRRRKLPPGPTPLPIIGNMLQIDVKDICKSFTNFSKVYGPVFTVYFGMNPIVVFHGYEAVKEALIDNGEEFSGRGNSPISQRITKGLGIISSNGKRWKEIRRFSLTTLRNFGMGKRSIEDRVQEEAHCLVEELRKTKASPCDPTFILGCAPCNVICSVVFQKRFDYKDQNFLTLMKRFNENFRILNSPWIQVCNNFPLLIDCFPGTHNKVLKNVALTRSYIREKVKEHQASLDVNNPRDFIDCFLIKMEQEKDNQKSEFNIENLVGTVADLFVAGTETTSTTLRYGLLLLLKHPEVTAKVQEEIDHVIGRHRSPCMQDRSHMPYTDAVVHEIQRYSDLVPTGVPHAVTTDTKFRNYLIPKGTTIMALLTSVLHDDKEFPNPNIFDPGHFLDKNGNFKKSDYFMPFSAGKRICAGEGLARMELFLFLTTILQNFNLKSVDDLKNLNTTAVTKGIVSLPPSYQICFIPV
Method: as §1, §2

CYP2C9 = CYP2C9 (Homo sapiens, UniProt P11712); assay: Direct CYP inhibition assay using pooled HLM
Method: as §1, §2

CYP3A4 = CYP3A4 (Homo sapiens, UniProt P08684); assay: Direct CYP inhibition assay using pooled HLM; conditions: for IC50: direct inhibition, 95% confidence intervals in parentheses
Method: as §1, §2

CYP2A6 = target: T5, CYP2A6 (Homo sapiens, UniProt P11509); assay: Direct CYP inhibition assay using pooled HLM
T5 sequence (P11509 1-494): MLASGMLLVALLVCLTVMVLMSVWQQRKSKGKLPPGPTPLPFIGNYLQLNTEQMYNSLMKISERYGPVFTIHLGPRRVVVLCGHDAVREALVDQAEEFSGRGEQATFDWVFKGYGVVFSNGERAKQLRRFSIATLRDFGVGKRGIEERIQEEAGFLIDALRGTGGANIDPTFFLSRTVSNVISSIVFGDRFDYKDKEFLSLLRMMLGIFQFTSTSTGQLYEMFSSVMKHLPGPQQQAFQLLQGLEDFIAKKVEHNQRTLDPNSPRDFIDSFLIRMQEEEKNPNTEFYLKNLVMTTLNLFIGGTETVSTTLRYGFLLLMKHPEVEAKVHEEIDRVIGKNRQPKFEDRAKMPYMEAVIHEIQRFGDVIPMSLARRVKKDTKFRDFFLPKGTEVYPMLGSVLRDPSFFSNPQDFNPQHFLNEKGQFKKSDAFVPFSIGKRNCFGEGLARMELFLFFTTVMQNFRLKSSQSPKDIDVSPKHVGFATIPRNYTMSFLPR
Method: as §1, §2

[4] = type: in vitro ADME, human; conditions: human, 1 µM
Method: Table 3. Putative M1 metabolite produced in pooled HLM incubated with thalifendine or
Precursor molecules Incubation time (min)a M1 signal at m/z 310 (103 × cps)b
Demethyleneberberine 0 107 ± 3
a Thalifendine or demethyleneberberine (1 μM) was incubated with pooled HLM in the presence of
NADPH-generating system; b Each value represents the mean ± SD for three separate samples. […]

CYP2D6 [5] = target: T3, CYP2D6; assay: Metabolism-dependent CYP2D6 inhibition assay (IC50 shift) using pooled HLM; conditions: for MDI (metabolism-dependent inhibition) of CYP2D6 (in words): pre-incubation with NADPH
Method: Pre-incubation was performed in pooled HLM (0.2 mg/mL) added with BBR, THB, TFD, or DMB, or rhCYP2D6 (10 pmol/mL) added with BBR, with or without NADPH (1 mM) in phosphate buffer (0.1 M; pH 7.4) for 30 min. Then, the CYP2D6 substrate (5 µM of dextromethorphan) and NADPH (1 mM) were added to the mixture and incubated for another 10 min. All incubations were carried out at 37 °C in a shaking water bath (100 rpm) using eight-well tube strips placed in an 8 × 12 rack, where the final volume of each reaction mixture was 200 µL. […] The enzyme reactions were quenched by adding an aliquot (200 µL) of ice-cold ACN containing CBZ (100 nM) as an IS. The samples were centrifuged, and the concentration of CYP2D6 metabolite (i.e., dextrorphan, produced by O-demethylation of dextromethorphan) in supernatants were analyzed using the LC-MS/MS method described in Section 2.2.

CYP enzymes = assay: Direct CYP inhibition assay using pooled HLM, all CYP enzymes tested; type: in vitro ADME, human; conditions: read-out: IC50 values, range over all CYP enzymes tested (pan-CYP inhibitory activities)
Method: as §1, §3

[6] = IC50 CYP3A4 (MDZ), substrate MDZ
[7] = IC50 CYP3A4 (TST), substrate TST

Sequence of CYP2C19 (P33261 whole entry): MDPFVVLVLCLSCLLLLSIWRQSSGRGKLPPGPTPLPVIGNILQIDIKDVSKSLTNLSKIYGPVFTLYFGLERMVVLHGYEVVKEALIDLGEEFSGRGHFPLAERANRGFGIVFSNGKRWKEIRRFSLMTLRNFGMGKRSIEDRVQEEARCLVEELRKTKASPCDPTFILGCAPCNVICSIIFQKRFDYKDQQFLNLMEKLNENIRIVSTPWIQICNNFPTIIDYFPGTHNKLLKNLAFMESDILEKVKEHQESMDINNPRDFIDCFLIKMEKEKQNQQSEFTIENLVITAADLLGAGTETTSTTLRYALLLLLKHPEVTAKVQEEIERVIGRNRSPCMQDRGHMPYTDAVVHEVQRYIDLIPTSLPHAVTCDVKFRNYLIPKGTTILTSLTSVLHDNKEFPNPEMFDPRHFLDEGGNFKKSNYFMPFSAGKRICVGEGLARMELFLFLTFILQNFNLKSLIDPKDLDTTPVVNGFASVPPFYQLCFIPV
Sequence of CYP3A4 (P08684 whole entry): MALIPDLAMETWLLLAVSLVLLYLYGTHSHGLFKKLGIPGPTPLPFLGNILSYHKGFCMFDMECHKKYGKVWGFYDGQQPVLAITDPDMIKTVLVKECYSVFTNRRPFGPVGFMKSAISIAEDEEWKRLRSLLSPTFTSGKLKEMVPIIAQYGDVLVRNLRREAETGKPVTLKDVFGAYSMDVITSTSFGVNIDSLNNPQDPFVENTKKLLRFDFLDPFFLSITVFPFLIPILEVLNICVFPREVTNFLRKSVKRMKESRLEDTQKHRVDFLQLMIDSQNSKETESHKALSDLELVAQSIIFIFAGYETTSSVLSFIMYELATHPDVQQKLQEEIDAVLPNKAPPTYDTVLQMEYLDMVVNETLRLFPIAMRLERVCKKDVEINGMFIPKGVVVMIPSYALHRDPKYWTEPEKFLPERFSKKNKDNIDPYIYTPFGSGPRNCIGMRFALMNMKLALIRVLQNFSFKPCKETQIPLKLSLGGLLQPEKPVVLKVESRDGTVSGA
T3 sequence (P10635 whole entry): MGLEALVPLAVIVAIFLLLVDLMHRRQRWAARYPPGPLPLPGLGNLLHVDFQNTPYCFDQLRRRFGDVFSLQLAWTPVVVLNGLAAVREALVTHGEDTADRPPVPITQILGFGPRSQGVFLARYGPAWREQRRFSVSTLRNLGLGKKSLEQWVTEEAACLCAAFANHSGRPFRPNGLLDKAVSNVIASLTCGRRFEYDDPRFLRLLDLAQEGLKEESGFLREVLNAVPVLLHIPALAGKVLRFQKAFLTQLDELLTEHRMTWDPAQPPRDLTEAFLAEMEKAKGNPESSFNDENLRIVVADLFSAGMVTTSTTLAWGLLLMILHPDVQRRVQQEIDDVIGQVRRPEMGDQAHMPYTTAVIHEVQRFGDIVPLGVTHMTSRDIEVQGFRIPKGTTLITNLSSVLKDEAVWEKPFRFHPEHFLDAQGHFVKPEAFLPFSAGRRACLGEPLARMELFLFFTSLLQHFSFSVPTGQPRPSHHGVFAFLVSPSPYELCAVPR
Sequence of CYP2C9 (P11712 whole entry): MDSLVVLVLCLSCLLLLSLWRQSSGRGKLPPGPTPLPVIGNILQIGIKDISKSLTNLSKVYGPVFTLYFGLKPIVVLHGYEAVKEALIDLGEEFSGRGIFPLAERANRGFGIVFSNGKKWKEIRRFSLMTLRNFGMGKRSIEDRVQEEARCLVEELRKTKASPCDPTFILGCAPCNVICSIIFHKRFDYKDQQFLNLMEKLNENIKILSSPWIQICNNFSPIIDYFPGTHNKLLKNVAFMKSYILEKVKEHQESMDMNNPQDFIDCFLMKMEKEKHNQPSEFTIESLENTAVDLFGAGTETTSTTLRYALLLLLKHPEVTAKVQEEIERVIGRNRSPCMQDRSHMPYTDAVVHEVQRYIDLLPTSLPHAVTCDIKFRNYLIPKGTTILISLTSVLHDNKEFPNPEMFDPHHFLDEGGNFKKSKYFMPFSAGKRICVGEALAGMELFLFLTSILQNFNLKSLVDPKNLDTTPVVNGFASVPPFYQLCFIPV
Sequence of CYP2E1 (P05181 whole entry): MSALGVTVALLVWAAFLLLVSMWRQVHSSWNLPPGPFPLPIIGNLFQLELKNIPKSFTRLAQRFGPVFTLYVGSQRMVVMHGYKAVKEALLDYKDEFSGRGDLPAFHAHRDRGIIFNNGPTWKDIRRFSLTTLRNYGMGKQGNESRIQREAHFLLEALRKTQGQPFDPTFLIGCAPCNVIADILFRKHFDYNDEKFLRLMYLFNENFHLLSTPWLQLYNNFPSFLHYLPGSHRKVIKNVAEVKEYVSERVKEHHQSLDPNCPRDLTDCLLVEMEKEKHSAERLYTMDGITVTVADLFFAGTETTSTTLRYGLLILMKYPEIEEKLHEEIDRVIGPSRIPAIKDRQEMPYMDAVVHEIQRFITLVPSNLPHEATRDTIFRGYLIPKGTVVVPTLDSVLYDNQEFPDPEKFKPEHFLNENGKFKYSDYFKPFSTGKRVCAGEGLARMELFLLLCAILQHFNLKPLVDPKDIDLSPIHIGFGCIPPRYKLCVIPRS

IC50 (CYP2C19) | IC50 (CYP2B6) | IC50 (CYP1A2) | Concentration in incubation mixture (elimination of BBR and formation of its metabolites) ([1]; 0 min) | Concentration in incubation mixture (elimination of BBR and formation of its metabolites) ([1]; 7.5 min) | Concentration in incubation mixture (elimination of BBR and formation of its metabolites) ([1]; 15 min) | Concentration in incubation mixture (elimination of BBR and formation of its metabolites) ([1]; 30 min) | Concentration in incubation mixture (elimination of BBR and formation of its metabolites) ([1]; 60 min) | Concentration in incubation mixture (elimination of BBR and formation of its metabolites) ([1]; 120 min) | IC50 (CYP2E1) | IC50 (CYP2D6 [3]) | IC50 (CYP2C8) | IC50 (CYP2C9) | IC50 (CYP3A4; [6]) | IC50 (CYP3A4; [7]) | IC50 (CYP2A6) | Compound | MDI (metabolism-dependent inhibition) of CYP2D6 (in words) (CYP2D6 [5]; pooled HLM) | other results
49 µM | 96 µM | 51 µM | 5.4 ± 0.1 nM | 5.6 ± 0.0 nM | 5.8 ± 0.1 nM | 6.0 ± 0.1 nM | 6.1 ± 0.0 nM | 6.2 ± 0.0 nM | 34 µM | 45 µM | 72 µM | 57 µM | 28 µM | 45 µM | 17 µM | COc1ccc2cc3[n+](cc2c1O)CCc1cc2c(cc1-3)OCO2 [BRB, berberrubine] | – | IC50 at 5 min [2]: 17 to 96 µM
> 100 µM | > 100 µM | > 100 µM | 5.4 ± 0.1 nM | 20.9 ± 0.4 nM | 33.3 ± 0.6 nM | 44.3 ± 1.0 nM | 50.4 ± 0.7 nM | 49.3 ± 1.0 nM | 32 µM | 28 µM | > 100 µM | > 100 µM | > 100 µM | > 100 µM | > 100 µM | COc1c(O)ccc2cc3[n+](cc12)CCc1cc2c(cc1-3)OCO2 [TFD, thalifendine] | exhibited MDI | M1 signal at m/z 310 ([4]; 0 min): 6 ± 1 103 × cps; M1 signal at m/z 310 ([4]; 30 min): 2200 ± 125 103 × cps; IC50 (CYP2D6 [5]; IC50 against CYP2D6, pre-incubation with NADPH, pooled HLM, 30 min pre-incubation with NADPH): 6.49 µM; IC50 (CYP2D6 [5]; IC50 against CYP2D6, pre-incubation without NADPH, pooled HLM, 30 min pre-incubation without NADPH): 20.6 µM; IC50 shift at 10 min (CYP2D6 [5]; human, pooled human liver microsomes, pH 7.4, probe dextromethorphan (5 µM)): 3.2
– | – | – | – | – | – | – | – | – | – | – | – | – | – | – | – | COc1ccc2c(c1OC)CN1CCc3cc4c(cc3C1C2)OCO4 (stereo not drawn) [THB, tetrahydroberberine] | exhibited MDI | Inhibition of CYP2C19 (in words) (CYP2C19; pooled HLM, up to 100 µM): not markedly inhibited; Fold reduction in IC50 against CYP2D6 (IC50 shift) (CYP2D6 [5]; pooled HLM, pre-incubation with vs without NADPH): 2.2 fold; IC50 (CYP2D6 [5]; read-out: IC50 against CYP2D6, pre-incubation with NADPH, pooled HLM, 30 min pre-incubation with NADPH): 0.306 µM; IC50 (CYP2D6 [5]; read-out: IC50 against CYP2D6, pre-incubation without NADPH, pooled HLM, 30 min pre-incubation without NADPH): 0.661 µM; Inhibition of CYP2B6 (in words) (CYP2B6; pooled HLM, up to 100 µM): not markedly inhibited; Inhibition of CYP1A2 (in words) (CYP1A2; pooled HLM, up to 100 µM): not markedly inhibited; Inhibition of CYP2E1 (in words) (CYP2E1; pooled HLM, up to 100 µM): not markedly inhibited; IC50 (CYP2D6 [3]; read-out: IC50 CYP2D6, pooled HLM, direct inhibition, substrate dextromethorphan, 95% confidence intervals in parentheses): 0.97 µM; Inhibition of CYP2C8 (in words) (CYP2C8; pooled HLM, up to 100 µM): not markedly inhibited; Inhibition of CYP2C9 (in words) (CYP2C9; pooled HLM, up to 100 µM): not markedly inhibited; Inhibition of CYP3A4 (in words) (CYP3A4; up to 100 µM, substrates MDZ and TST): not markedly inhibited; Inhibition of CYP2A6 (in words) (CYP2A6; pooled HLM, up to 100 µM): not markedly inhibited
– | – | – | – | – | – | – | – | – | – | – | – | – | – | – | – | COc1ccc2c(c1O)CN1CCc3cc4c(cc3C1C2)OCO4 (stereo not drawn) [TRB, Tetrahydroberberrubine·acetate] | – | IC50 (CYP2C19; read-out: IC50 CYP2C19, pooled HLM, direct inhibition, 95% confidence intervals in parentheses): 5.4 µM; IC50 (CYP2B6; read-out: IC50 CYP2B6, pooled HLM, direct inhibition, 95% confidence intervals in parentheses): 9.6 µM; IC50 (CYP1A2; microsomes): 6.9 µM; IC50 (CYP2E1; read-out: IC50 CYP2E1, pooled HLM, direct inhibition, 95% confidence intervals in parentheses): 2.7 µM; IC50 (CYP enzymes): 2.7 to 9.6 µM; IC50 (CYP2D6 [3]; microsomes): 3.4 µM; IC50 (CYP2C8; microsomes): 9.5 µM; IC50 (CYP2C9; microsomes): 6.5 µM; IC50 (CYP2A6; microsomes): 4.7 µM
– | – | – | – | – | – | – | – | – | – | – | – | – | – | – | – | demethylene-TFD [M1] | – | M1 (m/z = 310) signal formed from BBR ([1]; 0 min): 1.3 ± 0.25 1000 × cps; M1 (m/z = 310) signal formed from BBR ([1]; 7.5 min): 28 ± 0.66 1000 × cps; M1 (m/z = 310) signal formed from BBR ([1]; 15 min): 80 ± 0.31 1000 × cps; M1 (m/z = 310) signal formed from BBR ([1]; 30 min): 220 ± 2.6 1000 × cps; M1 (m/z = 310) signal formed from BBR ([1]; 60 min): 540 ± 15 1000 × cps; M1 (m/z = 310) signal formed from BBR ([1]; 120 min): 1100 ± 26 1000 × cps

Compound | IC50 (CYP2C19) | IC50 (CYP2B6) | IC50 (CYP1A2) | Concentration in incubation mixture (elimination of BBR and formation of its metabolites) ([1]; 0 min) | Concentration in incubation mixture (elimination of BBR and formation of its metabolites) ([1]; 7.5 min) | Concentration in incubation mixture (elimination of BBR and formation of its metabolites) ([1]; 15 min) | Concentration in incubation mixture (elimination of BBR and formation of its metabolites) ([1]; 30 min) | Concentration in incubation mixture (elimination of BBR and formation of its metabolites) ([1]; 60 min) | Concentration in incubation mixture (elimination of BBR and formation of its metabolites) ([1]; 120 min) | IC50 (CYP2E1) | IC50 (CYP2D6 [3]) | IC50 (CYP2C8) | IC50 (CYP2C9) | IC50 (CYP3A4; [6]) | IC50 (CYP3A4; [7]) | IC50 (CYP2A6) | MDI (metabolism-dependent inhibition) of CYP2D6 (in words) (CYP2D6 [5]; pooled HLM) | other results
COc1cc2c(cc1O)CC[n+]1cc3c(OC)c(OC)ccc3cc1-2 [JTZ, jatrorrhizine] | > 100 µM | > 100 µM | > 100 µM | 10.4 ± 0.3 nM | 10.7 ± 0.1 nM | 10.9 ± 0.3 nM | 10.5 ± 0.3 nM | 10.0 ± 0.2 nM | 9.6 ± 0.2 nM | 11 µM | 10 µM | 26 µM | > 100 µM | – | – | > 100 µM | – | –

From publication PMC7600264, “Quasi-Irreversible Inhibition of CYP2D6 by Berberine” (Pharmaceutics, 2020)
